The source of these data is paper PMC2876253, “MHC I Stabilizing Potential of Computer-Designed Octapeptides” (Journal of Biomedicine and Biotechnology, 2010).

Where no end group is shown, it is not given here.

In the first assay the target is T1, H-2K^b (Mus musculus, UniProt P01901).
T1 construct: For accumulation of peptide-free MHC I proteins at the cell surface, the cells were cultured for 16 hours at 26°C; endogenous in cells; host or cells: RMA-S cells (TAP-deficient mouse T lymphoma)
T1 sequence (P01901 22-369): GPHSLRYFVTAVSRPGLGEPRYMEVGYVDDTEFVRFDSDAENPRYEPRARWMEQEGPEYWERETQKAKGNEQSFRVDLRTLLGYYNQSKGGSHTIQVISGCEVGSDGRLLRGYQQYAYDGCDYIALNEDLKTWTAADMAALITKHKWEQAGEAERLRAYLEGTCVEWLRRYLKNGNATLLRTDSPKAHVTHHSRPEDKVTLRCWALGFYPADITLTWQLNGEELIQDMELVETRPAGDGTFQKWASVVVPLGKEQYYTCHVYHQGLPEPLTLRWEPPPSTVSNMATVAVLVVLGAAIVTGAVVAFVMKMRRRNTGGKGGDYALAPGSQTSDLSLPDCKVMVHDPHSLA
T1 sequence (P01887 21-119 partner): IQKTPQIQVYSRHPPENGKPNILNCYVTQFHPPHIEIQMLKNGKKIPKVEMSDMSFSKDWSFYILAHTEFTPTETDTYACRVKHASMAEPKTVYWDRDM
As to the kind of experiment: MHC I stabilization assay with TAP-deficient RMA-S cells. In kind it is cell-based. Conditions: peptide concentration for 50% of maximal MHC I stabilization (half-maximal MFI), 100 to 5.6 × 10^−4 μg/mL, 1 h room temperature then 1 h 37°C, flow cytometry with antibody B8.24.3, standard deviation in brackets, N = 3, n.d.: not detectable, SD, read-out: Experimental EC50. The protocol: The stabilization assay was performed as described by Brock et al. using TAP-deficient RMA-S cells (mutagenized Rauscher virus-induced T lymphoma cells of mouse origin). The cells were cultured in DMEM (Gibco-BRL, Karlsruhe, Germany) with 10% FCS (Sigma-Aldrich, Steinheim, Germany) at 37°C with 8% CO2. For accumulation of peptide-free MHC I proteins at the cell surface, the cells were cultured for 16 hours at 26°C. […] The stabilized MHC I proteins were visualized and quantified by flow cytometry using the H-2K^b specific monoclonal antibody B8.24.3 [23] purified in the laboratory from hybridoma culture supernatant by protein G affinity chromatography (Pierce, Darmstadt, Germany) and an R-Phycoerythrin-conjugated anti-mouse antibody (Dianova GmbH, Hamburg, Germany) as secondary reagent. The stabilizing effect of the peptides was determined as mean fluorescence intensity (MFI). The EC50 value is the peptide concentration that is required for half-maximal stabilization of the MHC I molecules at the cell surfaces (half-maximal MFI). All peptides were custom-synthesized by EMC microcollections GmbH (Tübingen, Germany).
(Flow cytometry measures light scatter and fluorescence of single cells or particles in a stream.)
A word on the EC50: it is the concentration giving half of the maximal effect. For the sequence FHWDYRGL [Peptide 3], the half-maximal effective concentration (EC50) was 25 µM.
On the same count and under the same terms, the result for FRYPYKTL [Peptide 1] reads 24 µM; that for WDFKFDSV [Peptide 7], 9 µM; that for WKFIFDPV [Peptide 8], 0.4 µM.
Turning to WRFIYFNL [Peptide 6], the EC50 is 3.6 µM.
On to WRFKYDNL [Peptide 4], for which the EC50 came to 7 µM.
Same read-out and setting: the result for WRFVYWRL [Peptide 5] reads 8 µM.

Still in this assay, the particulars now being: peptide concentration for 50% of maximal MHC I stabilization (half-maximal MFI), 100 to 5.6 × 10^−4 μg/mL, 1 h room temperature then 1 h 37°C, flow cytometry with antibody B8.24.3, standard deviation in brackets, N = 3, n.d.: not detectable, read-out: Experimental EC50.
As for FHHAHRTV [sequence 9], the EC50 is 9 µM.
FRYIYHTL [Seq. 2]: the EC50 is 20 µM.

Another assay concerns the target T1, H-2K^b.
Assay: not given
Also on record: method as in PMID 1606619. The conditions noted are these: known nonstabilizing octapeptide; cited from earlier work.
LSPFPFDL: the “H-2K^b stabilizing effect in words” value is given as “nonstabilizing”.
